Values of other authors in patent US10780114B2, “Therapeutic agent for skin wound or rough skin” (JFE MINERAL COMPANY, LTD., priority 2015, dated 2020).

Tests used:
[1] = test system: fibroblast
[2] = test system: skin; details: in vivo

[Zn+2] [zinc ions]
Zinc ion concentration that does not exhibit toxicity to a fibroblast [1]: not more than 500 μmol/L | Zinc ion level leading to increased inflammatory cell infiltration in skin and remarkably delayed reepithelization [2]: not less than 15 mmol/L
